Experimental data taken from ChEMBL document CHEMBL1201862, “PubChem BioAssay data set” (2004).
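Exposure lasted 48 hours, with cells grown in 96-well plates and compounds tested at five concentrations. GI50: concentration for 50% inhibition of growth.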 Activity calls are given as the source filed them. Cut-off read from the data, not from the text of the source: active = GI50 up to about 1.1 µM and inactive = higher. Where a SMILES comes first, the peptide text is derived from it. The star is where a group is joined. Boc = CC(C)(C)OC(=O)*; OBn = c1ccc(CO*)cc1

Key:
Test in all cases: NCI tumour cell line growth inhibition, 48 h
NCI-H460 = system: NCI-H460
HCT-15 = system: HCT-15
SR = system: SR
DU-145 = system: DU-145
A498 = system: A498
SF-295 = system: SF-295
HCT-116 = system: HCT-116
UACC-257 = system: UACC-257
OVCAR-4 = system: OVCAR-4
OVCAR-5 = system: OVCAR-5
SNB-75 = system: SNB-75
Malme-3M = system: Malme-3M
MDA-MB-435 = system: MDA-MB-435
SN12C = system: SN12C
MDA-N = system: MDA-N
SK-MEL-5 = system: SK-MEL-5
U-251 = system: U-251
M14 = system: M14
CCRF-CEM = system: CCRF-CEM
LOX IMVI = system: LOX IMVI

Row | Structure (SMILES) | GI50 (NCI-H460) | GI50 (HCT-15) [µM] | GI50 (SR) | GI50 (DU-145) | GI50 (A498) | GI50 (SF-295) | GI50 (HCT-116) | GI50 (UACC-257) | GI50 (OVCAR-4) | GI50 (OVCAR-5) | GI50 (SNB-75) | GI50 (Malme-3M) | GI50 (MDA-MB-435) | GI50 (SN12C) | GI50 (MDA-N) | GI50 (SK-MEL-5) | GI50 (U-251) | GI50 (M14) | GI50 (CCRF-CEM) | GI50 (LOX IMVI)
1 | CC(C(N)=O)N(C)C(=O)c1cnc2ccccc2c1 (stereo not given) | > 100 µM (inactive) | > 100 | > 100 µM (inactive) | > 100 µM (inactive) | > 100 µM (inactive) | > 100 µM (inactive) | > 100 µM (inactive) | > 100 µM (inactive) | > 100 µM (inactive) | > 100 µM (inactive) | > 100 µM (inactive) | > 100 µM (inactive) | > 100 µM (inactive) | > 100 µM (inactive) | > 100 µM (inactive) | > 100 µM (inactive) | > 100 µM (inactive) | > 100 µM (inactive) | > 100 µM (inactive) | –
2 | CCCc1c2c3ccccc3nc-2nc2ccccn12 | 32.8 µM (inactive) | > 100 | 49.1 µM (inactive) | > 100 µM (inactive) | > 100 µM (inactive) | 49.8 µM (inactive) | – | > 100 µM (inactive) | 50.5 µM (inactive) | 25.2 µM (inactive) | > 100 µM (inactive) | 61.7 µM (inactive) | 94.4 µM (inactive) | 73.5 µM (inactive) | 74.5 µM (inactive) | > 100 µM (inactive) | 63.7 µM (inactive) | 26.7 µM (inactive) | > 100 µM (inactive) | 41.4 µM (inactive)
3 | O=C(O)Cc1c(O)ccc2ccccc12 | > 100 µM (inactive) | > 100 | > 100 µM (inactive) | > 100 µM (inactive) | > 100 µM (inactive) | > 100 µM (inactive) | > 100 µM (inactive) | > 100 µM (inactive) | > 100 µM (inactive) | > 100 µM (inactive) | > 100 µM (inactive) | > 100 µM (inactive) | > 100 µM (inactive) | > 100 µM (inactive) | > 100 µM (inactive) | > 100 µM (inactive) | > 100 µM (inactive) | > 100 µM (inactive) | – | > 100 µM (inactive)
4 | CCOC(=O)CCC(NC(=O)Cc1ccc(Oc2nc3ccccc3nc2-c2ccccc2)cc1)C(=O)OCC (stereo not given) | > 100 µM (inactive) | > 100 | > 100 µM (inactive) | > 100 µM (inactive) | > 100 µM (inactive) | 67.1 µM (inactive) | > 100 µM (inactive) | > 100 µM (inactive) | 56.4 µM (inactive) | > 100 µM (inactive) | 37.8 µM (inactive) | > 100 µM (inactive) | > 100 µM (inactive) | > 100 µM (inactive) | > 100 µM (inactive) | 57.9 µM (inactive) | 75.9 µM (inactive) | > 100 µM (inactive) | > 100 µM (inactive) | –
5 | CCOC(=O)/C(C#N)=C/c1coc2cc(C)cc(C)c2c1=O | > 100 µM (inactive) | > 100 | > 100 µM (inactive) | > 100 µM (inactive) | > 100 µM (inactive) | 91.6 µM (inactive) | > 100 µM (inactive) | > 100 µM (inactive) | – | > 100 µM (inactive) | > 100 µM (inactive) | 45.3 µM (inactive) | > 100 µM (inactive) | > 100 µM (inactive) | > 100 µM (inactive) | > 100 µM (inactive) | > 100 µM (inactive) | > 100 µM (inactive) | > 100 µM (inactive) | > 100 µM (inactive)
6 | OC1c2[nH]c3ccccc3c2CCN2CCCCC12 (stereo not given) | > 100 µM (inactive) | > 100 | > 100 µM (inactive) | > 100 µM (inactive) | > 100 µM (inactive) | > 100 µM (inactive) | > 100 µM (inactive) | > 100 µM (inactive) | > 100 µM (inactive) | > 100 µM (inactive) | 59.4 µM (inactive) | > 100 µM (inactive) | > 100 µM (inactive) | > 100 µM (inactive) | > 100 µM (inactive) | – | > 100 µM (inactive) | > 100 µM (inactive) | > 100 µM (inactive) | > 100 µM (inactive)
7 | C=CC1ON(C)CCc2cc(OC)c(OC)cc21 (stereo not given) | > 100 µM (inactive) | > 100 | > 100 µM (inactive) | > 100 µM (inactive) | > 100 µM (inactive) | > 100 µM (inactive) | > 100 µM (inactive) | > 100 µM (inactive) | – | > 100 µM (inactive) | > 100 µM (inactive) | > 100 µM (inactive) | > 100 µM (inactive) | > 100 µM (inactive) | > 100 µM (inactive) | > 100 µM (inactive) | > 100 µM (inactive) | > 100 µM (inactive) | > 100 µM (inactive) | > 100 µM (inactive)
8 | CO[C@H](C)[C@](O)(C(=O)OCC1=CCN2CC[C@@H](O)[C@H]12)C(C)C | 28.5 µM (inactive) | 55.2 | > 100 µM (inactive) | > 100 µM (inactive) | > 100 µM (inactive) | > 100 µM (inactive) | > 100 µM (inactive) | > 100 µM (inactive) | > 100 µM (inactive) | > 100 µM (inactive) | > 100 µM (inactive) | – | > 100 µM (inactive) | > 100 µM (inactive) | > 100 µM (inactive) | > 100 µM (inactive) | > 100 µM (inactive) | > 100 µM (inactive) | > 100 µM (inactive) | > 100 µM (inactive)
9 | O=C(/C=C1/Nc2ccc([N+](=O)[O-])cc2N/C1=C/C(=O)c1ccccc1)c1ccccc1 | 13.7 µM (inactive) | 11.5 | 27.5 µM (inactive) | 43.7 µM (inactive) | 21.4 µM (inactive) | 15 µM (inactive) | 20.7 µM (inactive) | > 100 µM (inactive) | 5.6 µM (inactive) | > 100 µM (inactive) | 16.9 µM (inactive) | 40.8 µM (inactive) | > 100 µM (inactive) | 40.8 µM (inactive) | > 100 µM (inactive) | 38 µM (inactive) | 13.5 µM (inactive) | 86.9 µM (inactive) | 10.6 µM (inactive) | –
10 | CC(=O)O[C@H]1C(=O)[C@@]2(C)C(C(OC(=O)c3ccccc3)[C@]3(O)CC(OC(=O)C(O)C(NC(=O)c4ccccc4)c4ccc(F)cc4)C(C)=C1C3(C)C)[C@]1(OC(C)=O)CO[C@@H]1C[C@@H]2O (stereo not given in full) | < 0.001 µM (active) | 0.0129 | < 0.001 µM (active) | 0.00126 µM (active) | < 0.001 µM (active) | 0.00401 µM (active) | < 0.001 µM (active) | 1.17 µM (inactive) | 0.0904 µM (active) | 0.00141 µM (active) | 0.00168 µM (active) | – | < 0.001 µM (active) | 0.00158 µM (active) | < 0.001 µM (active) | 0.00375 µM (active) | 0.00124 µM (active) | 0.00164 µM (active) | 0.0014 µM (active) | 0.00129 µM (active)
11 | CC(C)CC(NC(=O)OC(C)(C)C)C(=O)N1CCCC1C(=O)OCc1ccccc1 (stereo not drawn) (Boc-Leu-Pro-OBn; configuration not given here) | – | 63.4 | 15.3 µM (inactive) | > 100 µM (inactive) | > 100 µM (inactive) | > 100 µM (inactive) | > 100 µM (inactive) | > 100 µM (inactive) | > 100 µM (inactive) | > 100 µM (inactive) | > 100 µM (inactive) | > 100 µM (inactive) | > 100 µM (inactive) | > 100 µM (inactive) | > 100 µM (inactive) | > 100 µM (inactive) | > 100 µM (inactive) | 99.3 µM (inactive) | – | 40.4 µM (inactive)
12 | Cc1ccc(C(=O)N/N=C(\N=N\c2ccc(C(=O)O)cc2)c2ccc(N(CCC#N)CCC#N)cc2C)cc1 | > 100 µM (inactive) | > 100 | > 100 µM (inactive) | > 100 µM (inactive) | 53.8 µM (inactive) | > 100 µM (inactive) | > 100 µM (inactive) | > 100 µM (inactive) | > 100 µM (inactive) | > 100 µM (inactive) | 43.9 µM (inactive) | – | > 100 µM (inactive) | > 100 µM (inactive) | > 100 µM (inactive) | > 100 µM (inactive) | > 100 µM (inactive) | > 100 µM (inactive) | > 100 µM (inactive) | > 100 µM (inactive)
13 | COC(=O)CCC(C)[C@H]1CCC2C3CC[C@@H]4CC5(CC[C@]4(C)C3C[C@H](OC(C)=O)[C@@]21C)OOC1(CCCCC1)OO5 (stereo not given in full) | 4.69 µM (inactive) | 11.9 | 3.33 µM (inactive) | 7.87 µM (inactive) | > 100 µM (inactive) | 9.4 µM (inactive) | 3.24 µM (inactive) | 4.49 µM (inactive) | 4.06 µM (inactive) | 17.3 µM (inactive) | 55.2 µM (inactive) | 4.03 µM (inactive) | 7.35 µM (inactive) | > 100 µM (inactive) | 8.26 µM (inactive) | 5.78 µM (inactive) | 6.62 µM (inactive) | 3.33 µM (inactive) | 5.3 µM (inactive) | –
14 | Cn1c(=O)c2c(nc(NCCCCl)n2CC(=O)O)n(C)c1=O | > 100 µM (inactive) | > 100 | < 0.01 µM (active) | > 100 µM (inactive) | > 100 µM (inactive) | > 100 µM (inactive) | > 100 µM (inactive) | > 100 µM (inactive) | > 100 µM (inactive) | > 100 µM (inactive) | > 100 µM (inactive) | – | > 100 µM (inactive) | > 100 µM (inactive) | > 100 µM (inactive) | > 100 µM (inactive) | > 100 µM (inactive) | > 100 µM (inactive) | > 100 µM (inactive) | > 100 µM (inactive)
